{"source": "patent US9895363B2", "about": "“Methods for modulating function of proliferating cell nuclear antigen (PCNA) and treating cancer with PCNA-targeting compounds” (University of Cincinnati, priority 2010, dated 2018)", "key": {"[1]": {"target": "T1, PCNA (Homo sapiens, UniProt P12004)", "T1 construct": "endogenous PCNA was knocked down with transfection of PCNA-specific siRNA; endogenous in cells; host or cells: PC-3", "assay": "PCNA trimer formation assay, PC-3 cell lysate", "format": "biochemical", "settings": "PC-3 lysate, 1 μM or 10 μM, 3 H, SDS-PAGE; FIG. 9(A)", "experimental": "The effect of PCNA-I1, PCNA-I2, PCNA-I3, PCNA-I4, PCNA-I6, PCNA-I7, PCNA-I8, PCNA-I9, and PCNA-I10 on PCNA trimer formation was investigated by SDS-PAGE and immunoblotting. Specifically, a trimer formation assay was performed on both PC-3 cell lysates and purified recombinant protein. The trimer formation assay was performed on purified recombinant protein to determine whether the effects of PCNA compounds on the stable trimer formation required the participation of other cellular proteins.\nPurified His-PCNA (0.1 μg/reaction) and PC-3 cell lysates (50 μg/reaction) were incubated for 3 H at room temperature in a reaction buffer (40 mM Tris-HCl, pH 7.5, 0.2 mg/mL BSA, 10 mM MgCl2, and 10% glycerol) in the absence or presence of DMSO (0.1% vehicle control) or PCNA-I1, PCNA-I2, PCNA-I3, PCNA-I4, PCNA-I6, PCNA-I7, PCNA-I8, PCNA-I9, or PCNA-I10 (1 μM or 10 μM). The reaction was stopped by addition of the SDS-PAGE sample buffer without a reducing agent. The samples were resolved in SDS-PAGE without boiling and analyzed by immunoblotting using PCNA antibody."}, "[2]": {"system": "Normal Cells", "assay": "Growth inhibition, mean over normal cells", "format": "cell-based", "experimental": "(§1) Growth inhibitory effects of PCNA-I1 and PCNA-I2 were assessed in human cancer cell lines, mouse cancer cell lines, immortalized mouse cell lines, and human primary cell lines. Specifically, growth inhibitory effects of PCNA-I1 and PCNA-I2 were assessed using MTT staining in the following cells lines: 1) human cancer cell lines including LNCaP (androgen receptor […]), 22Rv1, DU-145, LAPC-4, and PC-3 (androgen receptor […]) prostate cancer cells; MCF-7 and T47D breast cancer cells; A375 and MDA-MB435 melanoma cells; 2) mouse cancer cell lines including TRAMP-C2RE3 prostate cancer cells, B16 and K1735 melanoma cells, UV2237 fibrosarcoma cells, and CT-26 colon cancer cells; 3) immortalized mouse lung cell lines and mouse endothelial cell lines; and 4) primary human cell lines including umbilical endothelial cells (HUVEC, PromoCell, Heidelberg, Germany), primary bone marrow mesenchymal stem cells (HuMSC, PromoCell), primary human mammary epithelial cells (HuBrEC, Lonza, Walkersville, Md.), primary human prostate epithelial cells (HuPrEC, Lonza), and primary mouse spleen lymphocytes (isolated in this laboratory), and primary mouse bone marrow stromal cells (isolated in this laboratory). […]\n(§2) IC50 values were derived from growth inhibition curves. […] Inhibition of cell growth was calculated using the formula: growth inhibition (%)=(1−A570 of treated/A570 of control)×100. […]"}, "[3]": {"system": "LNCaP prostate cancer cells", "assay": "Growth inhibition by MTT staining, LNCaP", "format": "cell-based, Human", "settings": "96 h, Table II, Human tumor cells, treated four days, mean of five to seven experiments, read-out: IC50 Values, LNCaP", "experimental": "Growth inhibitory effects of PCNA-I1 and PCNA-I2 were assessed in human cancer cell lines, mouse cancer cell lines, immortalized mouse cell lines, and human primary cell lines. Specifically, growth inhibitory effects of PCNA-I1 and PCNA-I2 were assessed using MTT staining in the following cells lines: 1) human cancer cell lines including LNCaP (androgen receptor […]), 22Rv1, DU-145, LAPC-4, and PC-3 (androgen receptor […]) prostate cancer cells; MCF-7 and T47D breast cancer cells; A375 and MDA-MB435 melanoma cells; 2) mouse cancer cell lines including TRAMP-C2RE3 prostate cancer cells, B16 and K1735 melanoma cells, UV2237 fibrosarcoma cells, and CT-26 colon cancer cells; 3) immortalized mouse lung cell lines and mouse endothelial cell lines; and 4) primary human cell lines including umbilical endothelial cells (HUVEC, PromoCell, Heidelberg, Germany), primary bone marrow mesenchymal stem cells (HuMSC, PromoCell), primary human mammary epithelial cells (HuBrEC, Lonza, Walkersville, Md.), primary human prostate epithelial cells (HuPrEC, Lonza), and primary mouse spleen lymphocytes (isolated in this laboratory), and primary mouse bone marrow stromal cells (isolated in this laboratory). PCNA-I1 and PCNA-I2 were either provided by the University of Cincinnati Drug Discovery Center (UC-DDC, Cincinnati, Ohio) or were purchased from Chembridge Co (San Diego, Calif.), ChemDiv (San Diego, Calif.), and/or Sigma-Aldrich (St Louis, Mo.).\nGrowth inhibitory effects of the compounds were assessed by MTT staining as described previously by Dong et al. in In Vitro Model for Intrinsic Drug Resistance: Effects of Protein Kinase C Activators on the Chemosensitivity of Cultured Human Colon Cancer Cells; Mol. Pharmacol. 1991; 39: 563-9. Briefly, cells were cultured and treated in their respective media. Cells were plated into 96-well plates at 1000 to 5000 cells/well. After an overnight incubation, the cells were treated for four days with various concentrations (up to 10 μM) of PCNA-I1 or PCNA-I2. The live cells were stained with MTT and cells in exponential growth phase were harvested by a one to three minute treatment with a 0.25% trypsin-0.02% EDTA solution. Flasks were tapped to detach the cells, RPMI 1640-10% FBS was added, and the cell suspensions were gently agitated to produce single-cell suspensions. The cell suspensions were washed and resuspended in medium with supplements specified for different cells. Only suspensions of single cells with a viability exceeding 95% (ascertained by trypan blue exclusion) were used.\nIC50 values were derived from growth inhibition curves. Data for tumor cells are a mean of five to seven experiments. Data for primary cells are a mean of three experiments. […] Inhibition of cell growth was calculated using the formula: growth inhibition (%)=(1−A570 of treated/A570 of control)×100. IC50 (the concentration that inhibited cell growth by 50%) values were also determined. For evaluation of lymphocyte growth in suspension, an Alamar blue assay was performed, wherein freshly prepared mouse spleen lymphocytes were stimulated for 72 H with 2 ug/mL concanavalin A (Sigma Chemicals, St. Louis, […].). During the last 24 H, 20 μl/well of Alamar blue (Invitrogen, Carlsbad, Calif.) was added. The fluorescence intensity was measured at 530/580 (excitation/emission) in the FLUOstar Omega microplate reader (BMG LABTECH, Cary, N.C.).\nGrowth inhibitory effects of PCNA-I3, PCNA-I4, PCNA-I6, PCNA-I7, PCNA-I8, PCNA-I9 and PCNA-I10 were assessed in human prostate cancer cell lines. Specifically, growth inhibitory effects of PCNA-I3, PCNA-I4, PCNA-I6, PCNA-I7, PCNA-I8, PCNA-I9 and PCNA-I10 were assessed using MTT staining in LNCaP and PC-3 cells. […]"}, "[4]": {"system": "CT-26 colon cancer cells", "assay": "Growth inhibition by MTT staining, CT-26", "format": "cell-based", "settings": "CT26; Mouse tumor cells; cell line not given; read-out: IC50 Values, cell line cell blank (first row below UV2237)", "experimental": "as §1, §2"}, "[5]": {"system": "LNCaP cells", "assay": "LNCaP tumor model in male nude mice", "format": "in vivo", "experimental": "The therapeutic effects of PCNA-I1 were evaluated in LNCaP cells and 22Rv1 tumor models. LNCaP or 22Rv1 cells (1-2×10^6 cells in gelfoam) were implanted into the subcutis of male nude mice. From four to five days later, tumor-bearing mice were intraperitoneally injected with 10 mg/kg or 50 mg/kg of PCNA-I1. The therapy was continued at three times/week until termination of experiments. Control and treated tumor-bearing mice were monitored daily. Mouse body weight was recorded for toxicity evaluation twice a week and tumor size was measured using calipers twice a week. The experiments were terminated when mice in control groups were moribund. Additionally, to further evaluate potential liver and renal toxicity of PCNA-I1, the blood of tumor-bearing mice were sampled after the treatment with PCNA-I1 for 8 weeks."}}, "data": [{"smiles": "Cc1ccsc1C(=O)N/N=C/c1ccc2ccccc2c1O", "note": "[PCNA-I1]", "values": [{"measurement": "Portion of PCNA in the trimer form", "setting": "[1]", "result": "significantly elevated"}, {"measurement": "IC50", "setting": "[2]; mean over all normal cells, read-out: IC50 Values, Normal Cells, Mean ± SD", "result": "1430 ± 450", "unit": "nM"}, {"measurement": "Concentrations inhibiting growth of normal cells by 50% relative to those for tumor cells", "setting": "[2]; normal vs tumor cells, p<0.001", "result": "approximately 8 times"}, {"measurement": "IC50", "setting": "[3]", "result": 140, "unit": "nM"}, {"measurement": "IC50", "setting": "[4]", "result": 130, "unit": "nM"}, {"measurement": "Tumor eradication, LNCaP model", "setting": "[5]; 50 mg/kg i.p., three times/week", "result": "eradication of LNCaP tumors in some mice"}, {"measurement": "Tumor growth, LNCaP model", "setting": "[5]; 10 or 50 mg/kg i.p., three times/week", "result": "retarded tumor growth"}, {"measurement": "PCNA expression in tumor (immunohistochemistry)", "setting": "[5]; LNCaP tumor, 10 mg/kg three times/week, FIG. 22", "result": "reduced PCNA expression"}]}]}
